The values that follow come from ChEMBL document CHEMBL6096682, “Discovery of D-Ring-Contracted Artemisinin as a Potent Hydrophobic Tag for Targeted Protein Degradation” (J Med Chem, 2025).

The target of data set [1] is T1, Estrogen receptor (Homo sapiens) (UniProt P03372).
T1 sequence (whole entry): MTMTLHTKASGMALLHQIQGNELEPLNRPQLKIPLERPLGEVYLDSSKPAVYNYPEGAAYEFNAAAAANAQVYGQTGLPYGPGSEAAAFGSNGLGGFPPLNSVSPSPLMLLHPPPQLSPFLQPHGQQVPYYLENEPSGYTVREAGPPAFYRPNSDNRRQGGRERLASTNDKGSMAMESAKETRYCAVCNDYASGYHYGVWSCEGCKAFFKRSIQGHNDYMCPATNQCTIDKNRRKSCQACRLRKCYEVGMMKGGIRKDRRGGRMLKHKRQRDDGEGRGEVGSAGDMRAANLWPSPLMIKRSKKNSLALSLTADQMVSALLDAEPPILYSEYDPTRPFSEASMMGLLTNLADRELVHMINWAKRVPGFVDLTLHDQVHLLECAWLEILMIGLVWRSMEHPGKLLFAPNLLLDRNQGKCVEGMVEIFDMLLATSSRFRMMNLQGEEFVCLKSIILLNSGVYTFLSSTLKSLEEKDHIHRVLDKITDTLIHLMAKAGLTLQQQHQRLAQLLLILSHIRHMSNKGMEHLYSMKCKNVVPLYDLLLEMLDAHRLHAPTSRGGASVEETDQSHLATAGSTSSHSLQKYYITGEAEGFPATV
The data set is described as follows: HyT degrader activity at ER-alpha in human MCF7 cells assessed as induction of ER-alpha degradation at 10 uM incubated for 24 hrs by western blot analysis. Type of data set: cell-based. On the technique in general: A western blot detects proteins with antibodies after separation by electrophoresis.

The target of data set [2] is T1, Estrogen receptor (Homo sapiens). The data set is described as follows: HyT degrader activity at ER-alpha in human MCF7 cells assessed as induction of ER-alpha degradation by measuring decrease in ER-alpha level at 10 uM incubated for 48 hrs followed by drug wash-out and measured after 48 hrs by western blot analysis. The format is cell-based.
For data set [3] the target is unchanged. The data set is described as follows: HyT degrader activity at ER-alpha in human MCF7 cells assessed as induction of ER-alpha degradation by measuring decrease in ER-alpha level at 10 uM incubated for 48 hrs followed by drug wash-out and measured after 72 hrs by western blot analysis. The format is cell-based.
Data set [4] shares this target. The data set is described as follows: HyT degrader activity at ER-alpha in human T47D cells assessed as induction of ER-alpha degradation by measuring downregulation of ER-alpha level at 1 to 5 uM incubated for 24 hrs by immunoblot analysis. Type of data set: cell-based. Particulars: dose 1-5 µM.
Data set [5] shares this target. The data set is described as follows: HyT degrader activity at ER-alpha in human MCF7 cells assessed as induction of ER-alpha degradation by measuring residual ER-alpha level at 10 uM incubated for 12 hrs by immunoblot analysis. The format is cell-based.
For data set [6] the target is unchanged. The data set is described as follows: HyT degrader activity at ER-alpha in human MCF7 cells assessed as induction of ER-alpha degradation by measuring decrease in ER-alpha level at 10 uM pretreated with HSP90 inhibitor, 17-AAG for 2 hrs followed by incubation with compound for 12 hrs by immunoblot analysis. The format is cell-based.
Data set [7] has the same target. The data set is described as follows: HyT degrader activity at ER-alpha in human MCF7 cells assessed as induction of ER-alpha degradation by measuring decrease in ER-alpha level at 10 uM pretreated with 26S proteasome inhibitor, MG-132 for 2 hrs followed by incubation with compound for 12 hrs by immunoblot analysis. Type of data set: cell-based.
For data set [8] the target is unchanged. The data set is described as follows: HyT degrader activity at ER-alpha in human MCF7 cells assessed as induction of ER-alpha degradation by measuring decrease in ER-alpha level at 10 uM pretreated with 26S proteasome inhibitor, MG-132 and NAE inhibitor, MLN4924 for 6 hrs followed by incubation with compound for 24 hrs by immunoblot analysis. The format is cell-based.

Data set [9] concerns MCF7. The data set is described as follows: Antiproliferative activity against human MCF7 cells overexpressing EGFR assessed as reduction in cell viability incubated for 48 hrs by MTT assay. The note with it: MCF7, 48 h. Type of data set: functional, cell-based.
The subject of data set [10] is MCF7. The data set is described as follows: Antiproliferative activity against human MCF7 cells overexpressing EGFR assessed as reduction in cell viability incubated for 48 hrs by MTT assay relative to control. Type of data set: functional.
Data set [11] concerns MCF7. The data set is described as follows: Antiproliferative activity against human MCF7 cells overexpressing ER-alpha Y537S mutant assessed as reduction in cell viability incubated for 48 hrs by MTT assay. The format is functional, cell-based. Particulars: MCF7, 48 h. (In general: Tetrazolium assays rely on reduction of a dye to a coloured formazan, in cell work by metabolically active cells.)

In data set [12] the target is T1, Estrogen receptor (Homo sapiens). The data set is described as follows: Binding affinity to ER-alpha in human MCF7 cells assessed as increase in thermal stability of protein at 100 uM incubated for 1 hr followed by exposure to heat at 25 to 66 degC for 3 mins and incubation for 3 mins at room temperature by thermal shift binding assay. Type of data set: cell-based. Particulars: time 66.0 min.

Data set [13] has as its system MCF7. The data set is described as follows: Antitumor activity against human MCF7 cells xenografted in Balb/c mouse assessed as inhibition of tumor growth at 5 mg/kg, iv administered every 3 days and measured for 21 days. Type of data set: functional. The note with it: MCF7, 504 h, time 21 day, read-out: TGI.
The nature of data set [14]: Toxicity in Balb/c mouse xenografted with human MCF7 cells assessed as changes in body weight at 5 to 10 mg/kg, iv administered every 3 days and measured for 21 days. The format is organism-based. Particulars: in vivo, 504 h, dose 5-10 mg/kg, time 21 day. A general note: A xenograft is tissue or cells of one species grown in another, often human tumour cells in immunodeficient mice.

The nature of data set [15]: Toxicity in Balb/c mouse xenografted with human MCF7 cells assessed as effect on white blood cells count at 5 to 10 mg/kg, iv measured after 24 hrs. Particulars: in vivo, dose 5-10 mg/kg. The format is organism-based.
Data set [16] can be described thus: Toxicity in Balb/c mouse xenografted with human MCF7 cells assessed as effect on lymphocytes count at 5 to 10 mg/kg, iv measured after 24 hrs. The format is organism-based. Particulars: in vivo, dose 5-10 mg/kg.
Data set [17] is described as follows: Toxicity in Balb/c mouse xenografted with human MCF7 cells assessed as effect on hemoglobin content at 5 to 10 mg/kg, iv measured after 24 hrs. Type of data set: organism-based. The note with it: in vivo, dose 5-10 mg/kg.
Data set [18] can be described thus: Toxicity in Balb/c mouse xenografted with human MCF7 cells assessed as effect on heart morphological changes at 5 to 10 mg/kg, iv measured after 24 hrs by Hematoxylin-Eosin staining based analysis. The format is organism-based. The note with it: in vivo, dose 5-10 mg/kg.
The nature of data set [19]: Toxicity in Balb/c mouse xenografted with human MCF7 cells assessed as effect on liver morphological changes at 5 to 10 mg/kg, iv measured after 24 hrs by Hematoxylin-Eosin staining based analysis. The format is organism-based. The note with it: in vivo, dose 5-10 mg/kg.
A short description of data set [20]: Toxicity in Balb/c mouse xenografted with human MCF7 cells assessed as effect on kidneys morphological changes at 5 to 10 mg/kg, iv measured after 24 hrs by Hematoxylin-Eosin staining based analysis. Type of data set: organism-based. Particulars: in vivo, dose 5-10 mg/kg.

Calls of active or inactive are those of the source. The rule behind the calls is not given here.

As a reminder, the IC50 is the midpoint of a concentration-inhibition curve. With `C[C@@H]1CCC2[C@]34OO[C@](C)(CCC13)O[C@@H]4O[C@]2(C)C(=O)NCCCOc1ccc(C(=O)c2c(-c3ccc(O)cc3)sc3cc(O)ccc23)cc1` (stereo not given in full), the Activity was 83.1% in data set [1]; 23.5% in data set [5]; “Non-toxic” in [14]; “Non-toxic” in data set [15]; “Non-toxic” in data set [16]; “Non-toxic” in [17]. In addition, the Activity result in [18], in data set [19] and in data set [20] was “Non-toxic” each time. For the same compound, the result in data set [2], in data set [4] and in data set [12] was Active. The outcome in [3], in data set [6], in data set [7] and in data set [8] was inactive. The values for the IC50 in the data set on MCF7 [9] and in the data set on MCF7 [11] were 4.65 µM and 10.9 µM, respectively. The “inhibition (INH)” value with MCF7 [10] came out at 56.7%. Also, the inhibition in vivo at 5 mg/kg in the data set on MCF7 [13] stood at 93.3%.
